Where a name gives a salt, the structure may show the parent alone. Read-outs that look alike come from different tables or passages of the source.
How the values were obtained:
histamine = experiment: Antagonistic action towards histamine: inhibition of histamine-induced bronchospasm in anesthetized guinea pigs (Konzett-Rössler); format: in vivo, guinea pig; conditions: Cavia porcellus, iv, read-out: Inhibitory action towards histamine (ED50)
Procedure: (§1) 1. Antagonistic action towards the allergy mediators (on anesthetized guinea pigs)
(§2) The test substances were administered intravenously in aqueous solution injected in a volume of 1 ml/kg.

bradykinin = experiment: Antagonistic action towards bradykinin: inhibition of bradykinin-induced bronchospasm in anesthetized guinea pigs (Konzett-Rössler); format: in vivo, guinea pig; conditions: Cavia porcellus, iv, read-out: Inhibitory action towards bradykinin (ED50)
Procedure: as §1, §2

[1] = Acute toxicity, mortality within 7 days after single i.p. administration to NMRI mice; conditions: in vivo, ip, mouse i.p.
Procedure: The LD50 values were determined by the standard method of the mortality occurring within 7 days after a single intraperitoneal (i.p.) administration to NMRI mice (NMRI=Naval Medical Research Institute).

mast cells [2] = experiment: Passive cutaneous anaphylaxis (PCA) in the rat, inhibition of mediator release (protective effect on mast cells); format: in vivo; conditions: for inhibition in vivo at 50 mg/kg: oral dose 50 mg/kg; for inhibition in vivo at 25 mg/kg: oral dose 25 mg/kg
Source text: (a) Passive cutaneous anaphylaxis (PCA) in the rat (PCA test) Passive cutaneous anaphylaxis is an IgE-mediated allergy of the immediate type (type I). In this model, antibodies bound to mast cells and basophilic granulocytes react with an intravenously administered antigen with release of excessive amount of the allergy mediators. The histamine which is released during this can be visualized by simultaneous application of Evans blue to the shaven flanks of the rats. Photometric evaluation of the color intensity was used to determine, by means of the percentage inhibition of mediator release compared with untreated control animals, the protective effect on mast cells of the compound according to the invention after oral administration.

[3] = tested on: rat peritoneal mast cells; experiment: Histamine release from isolated rat mast cells induced by calcium ionophore A 23 187; format: cell-based; conditions: for IC50: Mast cell, 0.25 h, 15 min incubation, A 23 187 10^-6 g/ml, read-out: Inhibitory action in the Ca ionophore test IC50
Procedure: (b) Histamine release from isolated rat mast celss induced by calcium ionophore A 23 187 […] […] For this purpose, 10^4 cells were suspended in Clicks/RPMI (50:50, vol.; supplied by Serva, Heidelberg) tissue culture medium, incubated with the test substance for 15 minutes, and then treated with calcium ionophore A 23 187 at a concentration of 10^-6 g/ml. The released histamine was determined by high-pressure liquid chromatography (HPLC). The measure used for the inhibitory action was the IC50 which represents the molar concentration (mol/l) at which the induced histamine release was decreased to one half that of cells which had not been pretreated with a product. In this context, IC50 values above 10^-5 mol/l are regarded as therapeutically irrelevant.

[4] = Anticholinergic action in the Konzett-Rössler model; format: in vivo, guinea pig
[5] = tested on: platelet activating factor (PAF); experiment: Antagonism of PAF-induced bronchospasm in anesthetized rats; format: in vivo, rat; conditions: PAF test
Procedure: The compounds of the formula I and their salts additionally show a pronounced inhibitory action on platelet activating factor (PAF) and the leukotrienes, which are likewise released as spasmogenic mediators from the mast cells during the course of the immediate anaphylactic reaction. It was possible to antagonize the bronchospasm induced in anesthetized rats by administration of PAF by, for example, intravenous administration of the compound of Example 3 with a ED50 of 1-3 mg/kg. The said products of the state of the art, such as oxatomide, ketotiphen and terfenadine, have no action in this test. The contractions induced by calcium ionophore A 23 187 in isolated strips of lung and the isolated trachea of guinea pigs were inhibited by, for example, the compound of Example 3 with an IC50 of 0.1-0.3 μg/ml. Since calcium ionophore A 23 187 stimulates 5-lipoxygenase and thus promotes the formation of spasmogenic leukotrienes, a possible interpretation of the result of this experiment is that the compounds according to the invention are potent leukotriene inhibitors.

[6] = tested on: airway obstruction induced by histamine aerosol; experiment: Plethysmographic investigation on conscious guinea pigs with airway obstruction induced by inhalation of histamine aerosol; format: in vivo, guinea pig; conditions: oral, 0.3% strength histamine aerosol
[7] = state of the art; cited from earlier work
[8] = tested on: histamine and leukotrienes; conditions: state of the art; cited from earlier work
[9] = cited from earlier work
[10] = tested on: spontaneous motility of the mouse; experiment: Spontaneous motility of the mouse (central sedation); format: in vivo; conditions: oral, 1 mg/kg
mast cells [11] = conditions: British Pat. No. 1,144,905; cited from earlier work
[12] = state of the art; cited from earlier work; remark: listed apart in the source
[13] = long-term therapy, state of the art; cited from earlier work
[14] = anesthetized guinea pigs, dose reducing induced spasm to one half

| Structure (SMILES) | ED50 (histamine; [14]) [mg/kg] | ED50 (bradykinin; [14]) [mg/kg] | LD50 at 168 h [1] [mg/kg] | inhibition in vivo at 50 mg/kg (mast cells [2]; Mast cell) [%] | IC50 [3] [nM] | further results |
| --- | --- | --- | --- | --- | --- | --- |
| Cc1cc(NCCN2CCN(C(c3ccccc3)c3ccccc3)CC2)c(C#N)c(C)n1 [Example 9] | 0.3 to 1 | 3 to 10 | 300 to 600 | 64 | 10 | – |
| Cc1cc(NCCN2CCN(C(c3ccccc3)c3ccccc3)CC2)c(C(=O)O)c(C)n1.Cl.Cl.Cl.O.O [Example 5, 2,6-dimethyl-4-[(2-{4-diphenylmethyl-1-piperazinyl}-ethyl)amino]pyridine-3-carboxylic acid trihydrochloride dihydrate] | – | – | 300 to 600 | 91 | 100 | ED50 (histamine): 1 to 3 mg/kg; ED50 (bradykinin): 3 mg/kg; anticholinergic action [4]: strong anticholinergic action |
| Cc1cc(NCCN2CCN(Cc3ccccc3)CC2)c([N+](=O)[O-])c(C)n1 [Example 2, 4-[(2-(4-benzyl-1-piperazinyl)ethyl)amino]-2,6-dimethyl-3-nitropyridinetrihydrochloride] | – | – | – | 67 | 10000 | – |
| Cc1cc(NCCN2CCN(C(c3ccccc3)c3ccccc3)CC2)c([N+](=O)[O-])c(C)[n+]1[O-].Cl.Cl.Cl.O.O [Example 1, 2,6-Dimethyl-3-nitro-4-[(2-{4-diphenylmethyl-1-piperazinyl}ethyl)amino]pyridine 1-oxide trihydrochloride dihydrate] | – | – | > 150 | 91 | 100 | ED50 (histamine): 0.3 to 1 mg/kg; ED50 (bradykinin): 1 to 3 mg/kg |
| Cc1cc(NCCN2CCC(=C(c3ccccc3)c3ccccc3)CC2)c([N+](=O)[O-])c(C)n1.Cl.Cl.O.O [Example 6, 2,6-dimethyl-3-nitro-4-[(2-{4-diphenylmethylene-1-piperidyl}ethyl)amino]pyridine dihydrochloride dihydrate] | – | – | 600 to 1200 | 91 | – | ED50 (histamine): 1 to 3 mg/kg; ED50 (bradykinin): 3 to 6 mg/kg |
| Cc1cc(NCCN2CCN(C(c3ccncc3)c3ccc(Cl)cc3)CC2)c([N+](=O)[O-])c(C)n1 (stereo not drawn) [Example 16] | 1 | 1 | 300 to 600 | 75 | 100 | inhibition in vivo at 25 mg/kg (mast cells [2]; Mast cell): 46% |
| Cc1cc(NCCCN2CCN(C(c3ccccc3)c3ccccc3)CC2)c([N+](=O)[O-])c(C)n1 [Example 7] | 3 | 3 to 10 | 150 to 300 | 55 | 10 | – |
| O=c1[nH]c2ccccc2n1CCCN1CCN(C(c2ccccc2)c2ccccc2)CC1 [oxatomide] | – | – | – | – | – | action on PAF / PAF-induced bronchospasm (in words) [5]: no action; ED50 ([6]; Cavia porcellus): 25 mg/kg; time after administration to maximum effect [6]: 90 min; onset of action [7]: does not exert its action until several days have passed; antagonistic properties for histamine and leukotrienes [8]: antagonistic properties for histamine and leukotrienes; sedation ([9]; side effect, state of the art): pronounced sedation |
| Cc1cc(NCCN2CCN(CC=Cc3ccccc3)CC2)c([N+](=O)[O-])c(C)n1 [Example 8] | 3 | 3 to 10 | 75 to 150 | 60 | 100 | – |
| O=[N+]([O-])c1cnccc1NCCN1CCN(C(c2ccccc2)c2ccccc2)CC1 [Example 21] | 0.02 | 0.03 | 150 to 300 | – | – | – |
| Cc1cc(NCCN2CCN(C(c3ccccc3)c3ccccc3)CC2)c(N)c(C)n1.Cl.Cl.Cl.O.O [Example 4, 3-amino-2,6-dimethyl-4-[(2-{4-diphenylmethyl-1-piperazinyl}ethyl)amino]pyridine trihydrochloride dihydrate] | – | – | – | 73 | 50 | anticholinergic action [4]: strong anticholinergic action |
| Cc1cc(NCCN2CCC(C(O)(c3ccccc3)c3ccccc3)CC2)c([N+](=O)[O-])c(C)n1 [Example 17, 4-[(2-{4-hydroxy(diphenyl)methyl-1-piperidyl}ethyl)amino]-2,6-dimethyl-3-nitropyridine dihydrochloride] | 0.3 | 3 to 10 | 75 to 150 | 91 | < 10 | – |
| CN1CCC(=C2c3ccccc3CC(=O)c3sccc32)CC1 [ketotifen] | – | – | – | – | – | action on PAF / PAF-induced bronchospasm (in words) [5]: no action; reduction in the spontaneous motility [10]: significant; antagonistic properties for histamine and leukotrienes [8]: antagonistic properties for histamine and leukotrienes; sedation ([9]; side effect, state of the art): pronounced sedation |
| Cc1cc(N(C)CCN2CCN(C(c3ccccc3)c3ccccc3)CC2)c([N+](=O)[O-])c(C)n1 [Example 13] | 1 to 3 | 10 | 150 to 300 | 68 | < 10 | – |
| Cc1cc(N2CCSCC2)c([N+](=O)[O-])c(C)n1.Cl [4-(2,6-dimethyl-3-nitro-4-pyridyl)thiomorpholine hydrochloride, reference compound] | – | 3.16 | 150 to 300 | 13 | < 100000 | inhibition in vivo at 12.5 mg/kg (mast cells [2]; Mast cell, oral dose 12.5 mg/kg): 0%; inhibition in vivo at 25 mg/kg (mast cells [2]; Mast cell): 0%; protective effect on mast cells in PCA test (in words) (mast cells [2]; oral administration): inactive; inhibition of histamine release in the Ca ionophore test (in words) [3]: inactive |
| O=C(O)c1cc(=O)c2c(OCC(O)COc3cccc4oc(C(=O)O)cc(=O)c34)cccc2o1 [CHROMOGLICIC ACID] | – | – | – | – | – | stabilizing mast cells (mast cells [11]): stabilizing mast cells |
| Cc1cc(NCCN2CCN(C(c3ccc(F)cc3)c3ccc(F)cc3)CC2)c([N+](=O)[O-])c(C)n1 [Example 15] | 1 to 3 | 3 to 6 | 300 to 600 | 59 | 100 | – |
| CC(C)(C)c1ccc(C(O)CCCN2CCC(C(O)(c3ccccc3)c3ccccc3)CC2)cc1 (stereo not drawn) [terfenadine] | – | – | – | – | – | action on PAF / PAF-induced bronchospasm (in words) [5]: no action; solubility in water [12]: insolubility in water; weight gain [13]: undesired weight gain; sedation ([9]; in vivo): no sedative side effect |
| Cc1cc(NCCN2CCN(C(c3ccccc3)c3ccccc3)CC2)c(C#N)c(C)[n+]1[O-] [Example 10] | 0.1 to 0.3 | 1 to 3 | 75 to 150 | 91 | < 10 | – |
| Cc1cc(NCCN2CCN(C(c3ccccc3)c3ccc(Cl)cc3)CC2)c([N+](=O)[O-])c(C)n1 (stereo not drawn) [Example 14] | 1 to 3 | 3 to 10 | 150 to 300 | 55 | 1000 | – |
| CCCc1cc(NCCN2CCN(C(c3ccccc3)c3ccccc3)CC2)c([N+](=O)[O-])c(CCC)n1 [Example 12] | – | – | – | 61 | – | – |
| COc1ccc(CCN2CCC(Nc3nc4ccccc4n3Cc3ccc(F)cc3)CC2)cc1 [ASTEMIZOLE] | – | – | – | – | – | solubility in water [12]: insolubility in water; weight gain [13]: undesired weight gain; sedation ([9]; side effect, state of the art): no sedative side effect |
